Measurements: ChEMBL document CHEMBL4627310, “Design, synthesis and biological evaluation of 3-nitro-1,8-naphthalimides as potential antitumor agents” (Bioorg Med Chem Lett, 2020)
pIC50: −log10 of the molar value. The source made the active and inactive calls. No cut-off for these calls is given here.

What was measured:
DNA [1] = experiment: Binding affinity to supercoiled circular Escherichia coli pBR322 DNA assessed as DNA intercalation at 20 to 100 uM by gel electrophoresis mobility shift assay; assay type: nucleic-acid assay
HepG2 [2] = experiment: Anticancer activity against human HepG2 cells xenografted in mouse assessed as tumor growth inhibition by measuring T/C ratio at 5 mg/kg measured at day 14 relative to control; assay type: functional
T-24 [3] = experiment: Induction of apoptosis in human T24 cells assessed as membrane blebbing by AO/EB staining based assay; assay type: functional, cell-based
[4] = Toxicity in mouse xenografted with human T24 cells assessed as effect on body weight at 5 to 15 mg/kg; assay type: organism-based, T-24; conditions: in vivo
DNA [5] = experiment: Induction of DNA damage in human T24 cells assessed as inhibition of DNA replication at 10 uM measured after 24 hrs by EdU incorporation assay; assay type: cell-based; conditions: T-24
[6] = Toxicity in mouse xenografted with human HepG2 cells assessed as adverse effect at 5 to 15 mg/kg; assay type: organism-based; conditions: in vivo
T-24 [7] = experiment: Induction of apoptosis in human T24 cells assessed as pycnosis by AO/EB staining based assay; assay type: functional, cell-based
T-24 [8] = experiment: Induction of apoptosis in human T24 cells assessed as early apoptotic cells at 8.26 uM by AnnexinV/propidium iodide staining based flow cytometry (reference value: 0.7%); assay type: functional
DNA [9] = experiment: Induction of Escherichia coli supercoiled circular pBR322 DNA cleavage at 20 to 100 uM by gel electrophoresis mobility shift assay; assay type: nucleic-acid assay
T-24 [10] = experiment: Induction of apoptosis in human T24 cells assessed as […] of Bax expression at 2 to 8 uM by Western blot analysis; assay type: functional, cell-based
T-24 [11] = experiment: Induction of cell cycle arrest in human T24 cells assessed as upregulation of gammaH2AX expression at 2 to 8 uM by Western blot analysis; assay type: functional, cell-based
T-24 [12] = experiment: Induction of apoptosis in human T24 cells assessed as late apoptotic cells at 8.26 uM by AnnexinV/propidium iodide staining based flow cytometry (reference value: 0%); assay type: functional
T-24 [13] = experiment: Induction of apoptosis in human T24 cells assessed as early apoptotic cells at 4.13 uM by AnnexinV/propidium iodide staining based flow cytometry (reference value: 0.7%); assay type: functional
T-24 [14] = experiment: Anticancer activity against human T24 cells xenografted in mouse assessed as tumor inhibition rate at 15 mg/kg measured at day 14 relative to control; assay type: functional; conditions: T-24, 336 h
T-24 [15] = experiment: Induction of apoptosis in human T24 cells assessed as necrotic cells at 2.06 uM by AnnexinV/propidium iodide staining based flow cytometry (reference value: 0.1%); assay type: functional
T-24 [16] = experiment: Cell cycle arrest in human T24 cells assessed as accumulation at S phase at 4.13 uM measured after 24 hrs by propidium iodide staining based fluorescence analysis (reference value: 23.67%); assay type: functional
T-24 [17] = experiment: Induction of apoptosis in human T24 cells assessed as early apoptotic cells at 2.06 uM by AnnexinV/propidium iodide staining based flow cytometry (reference value: 0.7%); assay type: functional
T-24 [18] = experiment: Cell cycle arrest in human T24 cells assessed as accumulation at G1 phase at 8.26 uM measured after 24 hrs by propidium iodide staining based fluorescence analysis (reference value: 66.18%); assay type: functional
T-24 [19] = experiment: Cell cycle arrest in human T24 cells assessed as accumulation at G2/M phase at 2.06 uM measured after 24 hrs by propidium iodide staining based fluorescence analysis (reference value: 10.16%); assay type: functional
L02 = experiment: Cytotoxicity against human HL7702 cells assessed as cell growth inhibition measured after 48 hrs by MTT assay; assay type: cell-based; conditions: L02, 48 h
HepG2 [20] = experiment: Anticancer activity against human HepG2 cells xenografted in mouse assessed as tumor inhibition rate at 15 mg/kg measured at day 14 relative to control; assay type: functional; conditions: HepG2, 336 h
T-24 [21] = experiment: Induction of cell cycle arrest in human T24 cells assessed as upregulation of cdc-2Ty expression at 2 to 8 uM by Western blot analysis; assay type: functional, cell-based
T-24 [22] = experiment: Anticancer activity against human T24 cells xenografted in mouse assessed as tumor growth inhibition by measuring T/C ratio at 5 mg/kg measured at day 14 relative to control; assay type: functional
T-24 [23] = experiment: Cell cycle arrest in human T24 cells assessed as accumulation at G2/M phase at 4.13 uM measured after 24 hrs by propidium iodide staining based fluorescence analysis (reference value: 10.16%); assay type: functional
T-24 [24] = experiment: Induction of apoptosis in human T24 cells assessed as necrotic cells at 8.26 uM by AnnexinV/propidium iodide staining based flow cytometry (reference value: 0.1%); assay type: functional
T-24 [25] = experiment: Induction of apoptosis in human T24 cells assessed as live cells at 4.13 uM by AnnexinV/propidium iodide staining based flow cytometry (reference value: 99.1%); assay type: functional
HepG2 [26] = experiment: Antiproliferative activity against human HepG2 cells assessed as cell growth inhibition measured after 48 hrs by MTT assay; assay type: functional, cell-based; conditions: HepG2, 48 h
T-24 [27] = experiment: Cell cycle arrest in human T24 cells assessed as accumulation at S phase at 8.26 uM measured after 24 hrs by propidium iodide staining based fluorescence analysis (reference value: 23.67%); assay type: functional

## CNCCN1C(=O)c2cccc3cc([N+](=O)[O-])cc(c23)C1=O
DNA [1]
  Activity: Active
HepG2 [2]
  T/C: 66.7%
T-24 [3]
  Activity: Active
[4]
  Activity: Non-Toxic
DNA [5]
  Activity: Active
[6]
  Activity: Non-Toxic
T-24 [7]
  Activity: Active
T-24 [8]
  Activity: 23.4%
DNA [9]
  Activity: inactive
T-24 [10]
  Activity: Active
T-24 [11]
  Activity: Active
T-24 [12]
  Activity: 0%
T-24 [13]
  Activity: 5.4%
T-24 [14]
  inhibition in vivo at 15 mg/kg: 58.7%
T-24 [15]
  Activity: 0.2%
T-24 [16]
  Activity: 7.99%
T-24 [17]
  Activity: 0.9%
T-24 [18]
  Activity: 0.05%
T-24 [19]
  Activity: 30.01%
L02
  pIC50: 4.73
HepG2 [20]
  inhibition in vivo at 15 mg/kg: 60%
T-24 [21]
  Activity: Active
T-24 [22]
  T/C: 62.9%
T-24 [23]
  Activity: 82.11%
T-24 [24]
  Activity: 0%
T-24 [25]
  Activity: 94.3%
HepG2 [26]
  pIC50: 5.04
T-24 [27]
  Activity: 7.71%
